ChEMBL document CHEMBL1150976, “The selectivity of protein kinase inhibitors: a further update” (Biochem J, 2007)

Columns and labels:
[1] = target: Serine/threonine-protein kinase PAK 4 (Homo sapiens, UniProt O96013); experiment: Percentage PAK4 activity remaining in the presence of 2uM inhibitor
[2] = target: Serine/threonine-protein kinase PAK 5 (Homo sapiens) (UniProt Q9P286); experiment: Percentage PAK5 activity remaining in the presence of 2uM inhibitor
Rattus norvegicus = organism: Rattus norvegicus; experiment: Percentage AMPK activity remaining in the presence of 2uM inhibitor
[3] = target: Mitogen-activated protein kinase 14 (Homo sapiens, UniProt Q16539); experiment: Percentage p38alpha activity remaining in the presence of 2uM inhibitor
[4] = target: Serine/threonine-protein kinase Chk2 (Homo sapiens) (UniProt O96017); experiment: Percentage CHK2 activity remaining in the presence of 2uM inhibitor
[5] = target: T1, Serine/threonine-protein kinase Nek2 (Homo sapiens) (UniProt P51955); experiment: Percentage NEK2a activity remaining in the presence of 2uM inhibitor
T1 sequence (whole entry): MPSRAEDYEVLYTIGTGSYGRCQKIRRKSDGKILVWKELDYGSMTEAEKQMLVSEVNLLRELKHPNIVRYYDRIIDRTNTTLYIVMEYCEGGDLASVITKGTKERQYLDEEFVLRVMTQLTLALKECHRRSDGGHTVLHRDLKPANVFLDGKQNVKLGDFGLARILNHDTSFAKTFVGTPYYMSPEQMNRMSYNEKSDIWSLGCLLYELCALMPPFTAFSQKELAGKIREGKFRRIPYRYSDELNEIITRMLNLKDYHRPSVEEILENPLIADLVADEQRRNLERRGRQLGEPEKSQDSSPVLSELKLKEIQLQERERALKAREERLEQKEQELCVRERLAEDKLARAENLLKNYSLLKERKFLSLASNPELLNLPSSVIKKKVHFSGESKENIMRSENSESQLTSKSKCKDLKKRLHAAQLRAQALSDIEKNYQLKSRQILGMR

[6] = target: Rho-associated protein kinase 2 (Homo sapiens) (UniProt O75116); experiment: Percentage ROCK2 activity remaining in the presence of 2uM inhibitor
[7] = target: T2, Aurora kinase C (Homo sapiens) (UniProt Q9UQB9); experiment: Percentage Aurora C activity remaining in the presence of 3uM inhibitor
T2 sequence (whole entry): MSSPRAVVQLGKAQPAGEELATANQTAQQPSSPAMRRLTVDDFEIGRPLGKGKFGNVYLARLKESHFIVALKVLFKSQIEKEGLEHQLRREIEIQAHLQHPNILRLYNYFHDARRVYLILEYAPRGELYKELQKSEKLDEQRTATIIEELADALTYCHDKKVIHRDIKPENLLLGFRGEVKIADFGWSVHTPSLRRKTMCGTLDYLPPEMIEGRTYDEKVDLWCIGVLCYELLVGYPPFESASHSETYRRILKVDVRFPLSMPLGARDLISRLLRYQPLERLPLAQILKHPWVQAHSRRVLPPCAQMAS

[8] = target: T3, Serine/threonine-protein kinase Chk1 (Homo sapiens) (UniProt O14757); experiment: Percentage CHK1 activity remaining in the presence of 3uM inhibitor
T3 sequence (whole entry): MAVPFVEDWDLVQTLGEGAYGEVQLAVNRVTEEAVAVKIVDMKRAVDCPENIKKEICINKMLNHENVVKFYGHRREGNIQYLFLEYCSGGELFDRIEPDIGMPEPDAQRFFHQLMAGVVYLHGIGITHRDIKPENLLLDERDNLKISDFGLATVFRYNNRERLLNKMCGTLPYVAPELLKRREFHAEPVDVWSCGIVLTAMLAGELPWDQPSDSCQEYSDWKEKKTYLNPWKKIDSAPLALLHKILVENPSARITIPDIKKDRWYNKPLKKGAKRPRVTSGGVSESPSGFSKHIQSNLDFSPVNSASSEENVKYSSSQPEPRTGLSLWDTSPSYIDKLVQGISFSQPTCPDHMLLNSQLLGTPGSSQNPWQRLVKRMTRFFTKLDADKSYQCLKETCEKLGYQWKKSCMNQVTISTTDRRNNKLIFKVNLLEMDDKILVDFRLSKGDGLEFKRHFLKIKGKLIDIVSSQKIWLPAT

Chain of Serine/threonine-protein kinase Chk2 (Homo sapiens) (O96017 whole entry): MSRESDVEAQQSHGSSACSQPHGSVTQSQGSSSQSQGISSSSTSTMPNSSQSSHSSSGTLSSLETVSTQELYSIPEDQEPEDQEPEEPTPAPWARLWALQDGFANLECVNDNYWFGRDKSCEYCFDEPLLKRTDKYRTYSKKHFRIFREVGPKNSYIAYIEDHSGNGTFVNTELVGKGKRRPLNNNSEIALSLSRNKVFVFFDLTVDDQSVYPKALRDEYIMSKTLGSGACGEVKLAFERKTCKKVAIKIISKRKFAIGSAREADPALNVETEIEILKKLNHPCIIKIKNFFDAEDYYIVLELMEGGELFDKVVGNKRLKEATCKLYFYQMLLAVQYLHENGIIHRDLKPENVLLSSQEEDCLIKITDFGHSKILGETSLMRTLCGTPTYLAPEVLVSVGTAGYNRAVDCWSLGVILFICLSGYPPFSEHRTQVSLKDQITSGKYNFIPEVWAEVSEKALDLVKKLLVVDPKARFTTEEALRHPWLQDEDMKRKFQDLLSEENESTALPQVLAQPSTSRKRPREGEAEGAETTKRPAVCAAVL
Chain of Mitogen-activated protein kinase 14 (Q16539 whole entry): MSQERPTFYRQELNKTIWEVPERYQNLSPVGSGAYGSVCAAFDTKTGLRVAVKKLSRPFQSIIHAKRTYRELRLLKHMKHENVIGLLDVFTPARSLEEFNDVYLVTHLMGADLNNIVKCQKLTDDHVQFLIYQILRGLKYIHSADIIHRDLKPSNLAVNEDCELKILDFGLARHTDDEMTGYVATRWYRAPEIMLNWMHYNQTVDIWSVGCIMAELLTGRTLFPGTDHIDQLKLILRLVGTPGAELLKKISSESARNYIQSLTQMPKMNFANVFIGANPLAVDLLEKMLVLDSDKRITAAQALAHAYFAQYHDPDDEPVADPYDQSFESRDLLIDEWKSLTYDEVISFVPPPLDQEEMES
Chain of Serine/threonine-protein kinase PAK 4 (O96013 whole entry, looked up): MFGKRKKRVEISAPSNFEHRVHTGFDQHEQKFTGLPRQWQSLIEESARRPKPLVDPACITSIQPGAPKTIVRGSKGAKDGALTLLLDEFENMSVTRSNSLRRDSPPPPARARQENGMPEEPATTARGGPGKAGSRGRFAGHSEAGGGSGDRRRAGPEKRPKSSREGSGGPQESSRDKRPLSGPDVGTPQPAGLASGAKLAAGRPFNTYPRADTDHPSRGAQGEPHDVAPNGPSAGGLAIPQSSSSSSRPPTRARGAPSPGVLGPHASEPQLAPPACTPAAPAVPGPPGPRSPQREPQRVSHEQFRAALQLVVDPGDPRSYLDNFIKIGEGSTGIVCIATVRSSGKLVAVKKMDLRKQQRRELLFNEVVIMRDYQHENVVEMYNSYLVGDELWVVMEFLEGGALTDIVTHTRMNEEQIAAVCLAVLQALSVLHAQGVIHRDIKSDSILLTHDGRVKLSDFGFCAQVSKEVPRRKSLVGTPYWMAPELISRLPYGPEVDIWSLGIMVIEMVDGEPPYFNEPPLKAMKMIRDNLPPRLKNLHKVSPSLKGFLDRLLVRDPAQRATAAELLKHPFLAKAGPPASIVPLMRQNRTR
Chain of Rho-associated protein kinase 2 (Homo sapiens) (O75116 whole entry, looked up): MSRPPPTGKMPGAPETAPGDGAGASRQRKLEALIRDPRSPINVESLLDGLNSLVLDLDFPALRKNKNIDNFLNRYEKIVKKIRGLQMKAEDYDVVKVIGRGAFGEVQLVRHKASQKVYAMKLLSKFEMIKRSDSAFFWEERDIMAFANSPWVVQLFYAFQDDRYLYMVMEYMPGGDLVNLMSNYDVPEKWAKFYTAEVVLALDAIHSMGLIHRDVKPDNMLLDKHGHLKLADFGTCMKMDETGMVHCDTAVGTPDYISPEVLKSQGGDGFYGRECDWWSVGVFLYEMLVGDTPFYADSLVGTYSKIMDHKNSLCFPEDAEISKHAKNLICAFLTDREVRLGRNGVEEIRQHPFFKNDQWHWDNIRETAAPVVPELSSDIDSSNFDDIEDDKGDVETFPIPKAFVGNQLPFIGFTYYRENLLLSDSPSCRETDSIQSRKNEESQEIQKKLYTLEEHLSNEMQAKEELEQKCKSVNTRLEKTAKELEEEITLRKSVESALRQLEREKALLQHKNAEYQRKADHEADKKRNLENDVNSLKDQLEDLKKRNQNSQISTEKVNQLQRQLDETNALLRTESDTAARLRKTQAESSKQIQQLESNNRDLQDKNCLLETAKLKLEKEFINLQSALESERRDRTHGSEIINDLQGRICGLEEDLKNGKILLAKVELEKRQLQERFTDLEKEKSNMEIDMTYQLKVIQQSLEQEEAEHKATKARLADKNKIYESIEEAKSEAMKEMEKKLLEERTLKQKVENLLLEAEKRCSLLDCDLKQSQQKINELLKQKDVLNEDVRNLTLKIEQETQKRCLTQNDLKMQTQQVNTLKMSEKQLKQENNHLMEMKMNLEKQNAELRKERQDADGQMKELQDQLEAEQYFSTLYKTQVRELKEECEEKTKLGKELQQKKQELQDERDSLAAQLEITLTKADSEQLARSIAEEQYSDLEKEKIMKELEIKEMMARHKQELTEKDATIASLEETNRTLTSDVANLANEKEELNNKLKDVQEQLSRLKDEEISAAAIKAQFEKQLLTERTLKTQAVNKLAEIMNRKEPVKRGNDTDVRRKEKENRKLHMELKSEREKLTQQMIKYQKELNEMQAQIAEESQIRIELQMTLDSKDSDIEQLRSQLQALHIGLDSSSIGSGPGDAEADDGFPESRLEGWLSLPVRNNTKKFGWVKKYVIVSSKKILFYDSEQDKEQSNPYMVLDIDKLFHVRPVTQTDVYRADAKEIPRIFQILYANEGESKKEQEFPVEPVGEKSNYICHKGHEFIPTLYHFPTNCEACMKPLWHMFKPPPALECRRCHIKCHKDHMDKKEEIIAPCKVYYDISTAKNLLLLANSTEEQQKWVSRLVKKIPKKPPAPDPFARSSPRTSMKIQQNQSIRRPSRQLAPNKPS
Chain of Serine/threonine-protein kinase PAK 5 (Homo sapiens) (Q9P286 whole entry, looked up): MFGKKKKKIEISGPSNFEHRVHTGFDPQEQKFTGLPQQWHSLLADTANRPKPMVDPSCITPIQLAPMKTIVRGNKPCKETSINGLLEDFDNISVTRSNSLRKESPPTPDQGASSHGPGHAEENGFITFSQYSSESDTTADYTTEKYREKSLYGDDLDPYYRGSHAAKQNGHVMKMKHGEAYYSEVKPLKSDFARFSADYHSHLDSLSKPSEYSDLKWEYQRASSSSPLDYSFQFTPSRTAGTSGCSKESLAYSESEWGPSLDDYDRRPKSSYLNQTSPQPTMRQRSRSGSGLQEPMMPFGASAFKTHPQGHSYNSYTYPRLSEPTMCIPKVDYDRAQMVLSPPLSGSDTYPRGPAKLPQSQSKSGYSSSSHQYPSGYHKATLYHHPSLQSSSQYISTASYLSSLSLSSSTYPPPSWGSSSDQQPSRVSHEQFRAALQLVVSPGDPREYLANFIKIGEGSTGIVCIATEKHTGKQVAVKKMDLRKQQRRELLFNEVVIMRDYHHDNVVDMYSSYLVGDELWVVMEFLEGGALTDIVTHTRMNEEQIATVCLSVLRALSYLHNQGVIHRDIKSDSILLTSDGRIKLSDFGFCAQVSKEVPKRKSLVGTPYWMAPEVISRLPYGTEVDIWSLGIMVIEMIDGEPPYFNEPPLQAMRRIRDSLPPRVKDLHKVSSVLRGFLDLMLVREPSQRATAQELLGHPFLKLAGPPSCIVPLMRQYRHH

SMILES | Activity [1] [%] | Activity [2] [%] | Activity (Rattus norvegicus) [%] | Activity [3] [%] | Activity [4] [%] | Activity [5] [%] | Activity [6] [%] | Activity [7] [%] | Activity [8] [%]
Cn1cc(C2=C(c3ccc(Cl)cc3Cl)C(=O)NC2=O)c2ccccc21 | 84 | 85 | 67 | 77 | 93 | 74 | 101 | – | –
Cc1ccc(-c2c(C(=O)CF)n(CCCO)c3ncnc(N)c23)cc1 | – | – | – | – | – | – | – | 75 | 88
